{
  "source": "patent US12667582B2",
  "about": "“Composition containing 2′-FL for ameliorating, preventing or treating diseases caused by reduction of dopamine” (priority 2022, dated 2026)",
  "key": {"[1]": {"tested_on": "dopaminergic neuron culture from ventral mesencephalon tissue", "test": "6-OHDA-mediated dopaminergic degeneration in primary ventral mesencephalon neuron culture (tyrosine hydroxylase immunocytochemistry)", "assay_type": "cell-based, Sprague-Dawley rats", "conditions": "6-OHDA 100 μM alone, 48 hours, FIG. 2", "method": "Dopaminergic neuron culture was prepared from ventral mesencephalon tissue of E14-E15 embryos obtained from pregnant Sprague-Dawley rats. Specifically, the dissected ventral brain tissue was pooled and agitated for 15 minutes at 37° C. to separate the cells in pre-warmed trypsin EDTA (025%) and then the cells were washed with DMEM (Dulbecco's modified Eagle medium)/F12 culture medium. After washing, essential growth factors were added thereto, followed by culturing. 50% of the culture medium was replaced with fresh culture medium on the 3rd and 5th days of culture and the result was allowed to stand. From the 7th day of culture, antioxidant factors were excluded.\nIn addition, on the 10th day of culture, the neurotoxic substances 6-OHDA and 6-OHDA+2′-FL were added to the cells. After 48 hours, the cells were immobilized using 4% PFA (paraformaldehyde; Sigma-Aldrich) (FIG. 1). FIG. 1 illustrates the timeline of an in vitro experiment.\nThe viability rate of dopamine cells was determined from the immobilized cells using immunocytochemistry using tyrosine hydroxylase. Six samples were used for each group. The composition of each group is shown in Table 1 below and the number of cells was 1×10^6 which was constant for each group."}, "[2]": {"tested_on": "TH (+) cells in the substantia nigra", "test": "Tyrosine hydroxylase (TH) immunohistochemistry of dopaminergic neurons in substantia nigra", "assay_type": "in vivo, mouse", "conditions": "6-OHDA HBr injected into left striatum; top of FIG. 6", "method": "The mouse was anesthetized with chloral hydrate (400 mg/kg, ip) and fixed in a stereotaxic frame. 6-OHDA HBr (276 μg/μl×5 μl) was injected through a Hamilton microsyringe into two left striatum sites (1 mm AP, […] relative to bregma and […] and 1 mm AP, […] relative to bregma and […]) for 4 minutes (Day 0). Then, the mouse recovered from anesthesia was maintained at body temperature in a 37° C. incubator for 2 hours.\n2′-FL (500 μM×20 μl) and saline (control; 20 μl) were injected into the nose from days 0 to 28. To determine whether or not Parkinson's disease was induced and to observe behavioral changes, methamphetamine was administered to […] and behavioral changes were observed on days 7, 21, and 28, respectively (FIG. 3). FIG. 3 illustrates the timeline of an in vivo experiment.\nAfter the rotation test, the animals were slaughtered and brain tissue was removed therefrom (Veh, n=5; 2′-FL, n=4). The distribution of dopaminergic neurons was measured by immunohistochemistry using tyrosine hydroxylase (TH).\nSpecifically, the entire brain was sectioned to a thickness of 25 μm using a cryosection machine. […] The brain tissue was bound with a secondary antibody (concentration 1:500) and then was attached to a glass slide and expression was observed using a fluorescence microscope."}},
  "data": [
    {"smiles": "NCCc1cc(O)c(O)cc1O", "note": "[6-OHDA]", "values": [
      {"measurement": "decrease in dopamine cells compared to the normal cell group", "setting": "[1]", "result": "caused a severe decrease in dopamine cells"},
      {"measurement": "number of TH (+) cells in the substantia nigra after the toxin", "setting": "[2]", "result": "significantly reduced"}
    ]}
  ]
}
